Source: US20240409536A1, “COMPOUNDS AND METHODS FOR MODULATING SPLICING” (REMIX THERAPEUTICS INC., priority 2021, published 2024)
Where a name gives a salt, the structure may show the parent alone.

Assays:
Type in all cases: cell-based, human
HTT mRNA = assay: Gene panel canonical junction qPCR assay, HTT CJ mRNA decrease; conditions: Homo sapiens, canonical junction qPCR, read-out: HTT IC50 (decrease in CJ mRNA levels)
Procedure, shortened: (§1)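 A673 or K562 cells were treated with compound, and lysates underwent cDNA synthesis and qPCR with a CY5 5′-nuclease probe or primer spanning the canonical exon junction. ΔCt versus GAPDH, GUSB or PPIA was normalized to DMSO (2^(−ΔΔCt)), converted to percentage response and fitted four-parameter logistic for IC50.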

SMN2 mRNA = assay: Gene panel canonical junction qPCR assay, SMN2 CJ mRNA decrease; conditions: Homo sapiens, canonical junction qPCR, read-out: SMN2 IC50 (decrease in CJ mRNA levels)
Procedure, shortened: as §1

HiBiT-tagged HTT protein = assay: HiBiT protein abundance assay, HTT (K562 HiBiT knock-in cells); conditions: 24 hours
Procedure, shortened: (§2)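 Luminescent readout of HiBiT-tagged endogenous protein after lysis, following 24 h compound exposure of knock-in K562 lines at 37 °C. Ten 3-fold concentrations from 10 μM final, DMSO ≤0.25%. Four-parameter logistic fit of normalized response gives concentration halving abundance (IC50).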

HiBiT-tagged MYB protein = assay: HiBiT protein abundance assay, MYB (K562 HiBiT knock-in cells); conditions: 24 hours
Procedure, shortened: as §2

IC50 (HTT mRNA) | IC50 (SMN2 mRNA) | IC50 (HiBiT-tagged HTT protein) | IC50 (HiBiT-tagged MYB protein) | Structure (SMILES)
1000 to 10000 nM | < 100 nM | 1000 to 10000 nM | < 100 nM | Cc1cn2cc(NC(=O)c3ccc(N4CCN5CCC[C@H]5C4)c4ccnnc34)cc(F)c2n1 [Compound 154]
1000 to 10000 nM | < 100 nM | 1000 to 10000 nM | < 100 nM | CCC1CN(c2ccc(C(=O)Nc3cc(F)c4nc(C)cn4c3)c3nnccc23)CCN1 (stereo not shown) [Compound 130]
1000 to 10000 nM | < 100 nM | 1000 to 10000 nM | < 100 nM | CCN1CCC(c2ccc(C(=O)Nc3cc(F)c4nc(C)cn4c3)c3nnccc23)CC1 [Compound 141]
> 10000 nM | < 100 nM | > 10000 nM | < 100 nM | Cc1cn2cc(NC(=O)c3ccc(N4C[C@@H](C)N[C@@H](C)C4)c4ccnnc34)nc(C)c2n1 [Compound 172, N-{2,8-dimethylimidazo[1,2-a]pyrazin-6-yl}-5-[(3R,5S)-3,5-dimethylpiperazin-1-yl]cinnoline-8-carboxamide]
> 10000 nM | < 100 nM | 1000 to 10000 nM | < 100 nM | CN[C@@H]1CCN(c2ccc(C(=O)Nc3cc(F)c4nc(C)cn4c3)c3nccnc23)C1 (single isomer, unassigned) [Compound 193, N-{8-fluoro-2-methylimidazo[1,2-a]pyridin-6-yl}-8-[3-(methylamino)pyrrolidin-1-yl]quinoxaline-5-carboxamide]

More lines, now with the values behind:

Structure (SMILES) | IC50 (HTT mRNA) | IC50 (SMN2 mRNA) | IC50 (HiBiT-tagged HTT protein) | IC50 (HiBiT-tagged MYB protein)
CC[C@@H]1CN(c2ccc(C(=O)Nc3cc(F)c4nc(C)cn4c3)c3nnccc23)CCN1 [Compound 151] | 1000 to 10000 nM | < 100 nM | 1000 to 10000 nM | < 100 nM
CNC1CCN(c2ccc(C(=O)Nc3cc(F)c4nc(C)cn4c3)c3nc(C)ccc23)C1 (stereo not shown) [Compound 196, N-{8-fluoro-2-methylimidazo[1,2-a]pyridin-6-yl}-2-methyl-5-[3-(methylamino)pyrrolidin-1-yl]quinoline-8-carboxamide 2,2,2-trifluoroacetate] | 1000 to 10000 nM | < 100 nM | 1000 to 10000 nM | < 100 nM
CN[C@H]1CCN(c2ccc(C(=O)Nc3cc(F)c4nc(C)cn4c3)c3nccnc23)C1 (single isomer, unassigned) [Compound 194, N-{8-fluoro-2-methylimidazo[1,2-a]pyridin-6-yl}-8-[3-(methylamino)pyrrolidin-1-yl]quinoxaline-5-carboxamide] | 1000 to 10000 nM | < 100 nM | 1000 to 10000 nM | < 100 nM
Cc1cn2cc(NC(=O)c3ccc(N4CCN(C)CC4)c4ccnnc34)cc(F)c2n1 [Compound 127] | 1000 to 10000 nM | < 100 nM | 1000 to 10000 nM | 100 to 1000 nM
CNCC1CCN(c2ccc(C(=O)Nc3cc(F)c4nc(C)cn4c3)c3nccnc23)CC1 [Compound 192, N-{8-fluoro-2-methylimidazo[1,2-a]pyridin-6-yl}-8-{4-[(methylamino)methyl]piperidin-1-yl}quinoxaline-5-carboxamide trifluoroacetate] | 1000 to 10000 nM | 100 to 1000 nM | 1000 to 10000 nM | 1000 to 10000 nM
Cc1cnc2c(C(=O)Nc3cc(F)c4nc(C)cn4c3)ccc(N3CCC(N(C)C)CC3)c2n1 [Compound 208, 8-[4-(dimethylamino)piperidin-1-yl]-N-{8-fluoro-2-methylimidazo[1,2-a]pyridin-6-yl}-2-methylquinoxaline-5-carboxamide; bis(trifluoroacetic acid)] | 1000 to 10000 nM | < 100 nM | 1000 to 10000 nM | < 100 nM
Cc1cn2cc(NC(=O)c3ccc(N4CCC(N5CCCC5)C4)c4ccnnc34)cc(F)c2n1 (stereo not shown) [Compound 133] | 1000 to 10000 nM | < 100 nM | 1000 to 10000 nM | 100 to 1000 nM
Cc1cn2cc(NC(=O)c3ccc(N4CC(C)(C)NC(C)(C)C4)c4nccnc34)cc(F)c2n1 [Compound 219, N-{8-fluoro-2-methylimidazo[1,2-a]pyridin-6-yl}-8-(3,3,5,5-tetramethylpiperazin-1-yl)quinoxaline-5-carboxamide] | 1000 to 10000 nM | < 100 nM | 1000 to 10000 nM | < 100 nM
